What all share (assay): biochemical
Holding throughout (format): binding

Experiment [1] deals with HLA-DR DRB5*0101 (DR51) (Homo sapiens, UniProt P01903+Q30154).
Experiment [2] has as its target HLA-DR DRB1*1101 (DR11) (Homo sapiens, UniProt P01903+P01911, A100R/A169T/A87E/I96F/K41T/L162R/M171V/P40S/Q125H/Q178H/Q39Y/Q99D/R42S/S66Y/T262R/V115G/W38E).
For experiment [3], the target named is HLA-DR DRB1*1501 (DR15) (Homo sapiens, UniProt P01903+P01911).
Experiment [4] concerns the target HLA-DR DRB1*0101 (DR1) (Homo sapiens, UniProt P01903+P01911, A100R/D57E/F55L/F60I/F76Y/I96L/L162R/M171V/P40L/Q125E/R42F/V115G/Y59C).
Experiment [5] addresses HLA-DR DRB1*0401 (DR4) (Homo sapiens, UniProt P01903+P01911, A100K/A169T/F76Y/I96L/K127E/L162R/M171V/N62H/P40V/Q125Y/R42H/S133A/S149N/S66Y/V115G/V209L/W38E).
Experiment [6] has as its target HLA-DR DRB1*1302 (DR13) (Homo sapiens, UniProt P01903+P01911, A100E/A169T/K41T/L162R/M171V/P40S/Q125H/Q178H/Q39Y/Q99D/R42S/S66N/T262R/V115G/W38E/Y61H).
Experiment [7] addresses HLA-DR DRB4*0101 (DR53) (Homo sapiens, UniProt P01903+P13762, G164S).
Experiment [8] deals with HLA-DR DRB1*0701 (DR7) (Homo sapiens, UniProt P01903+P01911, A100R/A102G/A103Q/D57E/D86V/E43K/F76Y/K127E/L162R/M171V/P40G/Q125H/Q99D/R33Q/R42Y/R54Q/S133A/S66F/T210M/V115G/Y107V/Y59L/Y89S).

Read-outs that look alike come from different tables or passages of the source. No end group written: not given here.

Sequence of HLA-DR DRB1*1302 (DR13) (P01903 26-254 limits assumed, other chains not shown): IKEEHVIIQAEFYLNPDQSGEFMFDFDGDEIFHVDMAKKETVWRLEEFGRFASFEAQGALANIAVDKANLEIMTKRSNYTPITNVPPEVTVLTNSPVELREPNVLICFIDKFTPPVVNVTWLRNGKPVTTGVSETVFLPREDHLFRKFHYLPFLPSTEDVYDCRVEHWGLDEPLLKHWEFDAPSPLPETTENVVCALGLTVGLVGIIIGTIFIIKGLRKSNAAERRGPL
Sequence of HLA-DR DRB1*1101 (DR11) (P01903 26-254 limits assumed, other chains not shown): as above

For REYILDLHPEPTDLF, the IC50 in experiment [1] (read-out: DRB5 *0101) was above 31400 nM; in experiment [2] (read-out: DRB1 *1101), 4150 nM; in experiment [3] (read-out: DRBI *1501), above 33100 nM.
Take EEYVRFDSDVGE: the IC50 in experiment [1] (DRB5 *0101) was at least 200000 nM; in experiment [2] (DRB1 *1101) it was at least 200000 nM; in experiment [4] (DRB1 *0101), at least 50000 nM; in experiment [5] (DRB1 *0401), 216 nM.
With EEDIEIIFIQEEEY, the values for the IC50 in experiment [1] (read-out: DRB5 *0101) and in experiment [2] (read-out: DRB1 *1101) were 46100 nM and above 20600 nM, respectively.
As to KKPLNEILIRCHCQ, the IC50 was 965 nM in experiment [6] (read-out: DRBI *1302), 1300 nM in experiment [2] (read-out: DRB1 *1101) and 140 nM in experiment [7] (read-out: DRB4 *0101).
Regarding SHDLMLLRISEPAEL, the IC50 in experiment [1] (read-out: DRB5 *0101) is at least 100000 nM; in experiment [6] (read-out: DRBI *1302), 5.8 nM; in experiment [3] (read-out: DRBI *1501), 1100 nM; in experiment [7] (read-out: DRB4 *0101) it was 12 nM.
Turning to DRTLMSAMTNLAALF, the IC50 came out at 26100 nM in experiment [1] (read-out: DRB5 *0101), 2370 nM in experiment [2] (read-out: DRB1 *1101) and 57 nM in experiment [7] (read-out: DRB4 *0101).
As to KVSCKGSGYTFTAYQMH, the values for the IC50 in experiment [8] (DRB1 *0701), in experiment [2] (DRB1 *1101) and in experiment [4] (DRB1 *0101) were 50000 nM, above 200000 nM and 5000 nM, respectively.
On to ALVRQGLAKVA, for which the IC50 in experiment [1] (DRB5 *0101) was above 10000 nM; in experiment [2] (DRB1 *1101), at least 200000 nM; in experiment [5] (DRB1 *0401) it was 190 nM.
Take VRTLQQLLMGTCTIV: the results for the IC50 in experiment [1] (read-out: DRB5 *0101), in experiment [6] (read-out: DRBI *1302) and in experiment [3] (read-out: DRBI *1501) were above 15300 nM, 37 nM and 1830 nM, respectively.
Take VYQLDIQSTKEDLRV: the IC50 came out at 8690 nM in experiment [1] (read-out: DRB5 *0101), 708 nM in experiment [6] (read-out: DRBI *1302), 7350 nM in experiment [2] (read-out: DRB1 *1101) and 226 nM in experiment [7] (read-out: DRB4 *0101).
With MIMIKFMGVIYIMII [MJMIKFMGVIYIMII], the values for the IC50 in experiment [6] (DRBI *1302) and in experiment [3] (DRBI *1501) were 102 nM and 23600 nM, respectively.
As for AALAAAAAAKAAA, the IC50 in experiment [1] (read-out: DRB5 *0101) came out at 67 nM; in experiment [2] (read-out: DRB1 *1101) it was 2220 nM; in experiment [4] (read-out: DRB1 *0101) it was 1.9 nM; in experiment [5] (read-out: DRB1 *0401), 12 nM.
For the substance QKQVQMMIMIKFMGV, the IC50 in experiment [1] (read-out: DRB5 *0101) was 915 nM; in experiment [3] (read-out: DRBI *1501), 363 nM; in experiment [7] (read-out: DRB4 *0101), 5.3 nM.
On to VYDFVFADLRGVYRD, for which the results for the IC50 in experiment [1] (read-out: DRB5 *0101), in experiment [6] (read-out: DRBI *1302) and in experiment [3] (read-out: DRBI *1501) were above 51000 nM, 79 nM and 855 nM, respectively.
TGYKVLVLNPSV: the IC50 was above 11400 nM in experiment [1] (read-out: DRB5 *0101), 21 nM in experiment [6] (read-out: DRBI *1302) and 26 nM in experiment [2] (read-out: DRB1 *1101).
Take YAR(15)ASQTTLKAKT: the IC50 was found to be 3.6 nM in experiment [1] (read-out: DRB5 *0101); 1200 nM in experiment [8] (read-out: DRB1 *0701); 3.9 nM in experiment [2] (read-out: DRB1 *1101); 1.5 nM in experiment [4] (read-out: DRB1 *0101); 0.46 nM in experiment [5] (read-out: DRB1 *0401).
As for KKNIIALLIIPPKIH, the IC50 came out at 32 nM in experiment [3] (read-out: DRBI *1501) and 8.2 nM in experiment [7] (read-out: DRB4 *0101).
In the case of QKKYIYNLIMNTQNK, the IC50 in experiment [6] (DRBI *1302) was determined as 53 nM; in experiment [8] (DRB1 *0701), 11900 nM; in experiment [4] (DRB1 *0101), 73 nM; in experiment [3] (DRBI *1501) it was 844 nM; in experiment [7] (DRB4 *0101) it was 87 nM; in experiment [5] (DRB1 *0401), 24 nM.
Consider CIVYRDCIAYAACHK, for which the IC50 in experiment [1] (read-out: DRB5 *0101) was 1910 nM; in experiment [8] (read-out: DRB1 *0701) it was above 14600 nM; in experiment [2] (read-out: DRB1 *1101) it was 35600 nM; in experiment [5] (read-out: DRB1 *0401), 928 nM.
For TEGRCLHYTVDKSKPK, the IC50 was above 250000 nM in experiment [8] (DRB1 *0701), above 1250 nM in experiment [2] (DRB1 *1101) and 200 nM in experiment [5] (DRB1 *0401).
KSKFNILSSPLFNNF: the IC50 in experiment [1] (read-out: DRB5 *0101) turned out to be 32 nM; in experiment [6] (read-out: DRBI *1302), 25 nM; in experiment [8] (read-out: DRB1 *0701) it was 65 nM; in experiment [4] (read-out: DRB1 *0101) it was 0.8 nM; in experiment [3] (read-out: DRBI *1501), 5.9 nM; in experiment [5] (read-out: DRB1 *0401), 16 nM.
For the substance TVVYREGNPFGICKL, the IC50 in experiment [1] (read-out: DRB5 *0101) is 48800 nM; in experiment [6] (read-out: DRBI *1302), above 13100 nM; in experiment [2] (read-out: DRB1 *1101), above 18000 nM.
On to “DPNANPNVDPNANPNVNANPNANPNANP(X4)QKWAAVVVPS”, for which the IC50 in experiment [1] (read-out: DRB5 *0101) was above 2900 nM; in experiment [2] (read-out: DRB1 *1101) it was above 12500 nM; in experiment [3] (read-out: DRBI *1501), above 7580 nM; in experiment [7] (read-out: DRB4 *0101) it was above 72500 nM.

For the origin of these results see US20060079453A1, “Hla binding peptides and their uses” (priority 2002, published 2006).
